Like-named read-outs stand apart in the source and are kept apart here.
Columns and labels:
[1] = EFSA / Scientific Committee on Food opinion 2002; cited from earlier work
tasters [2] = assay: Tasting of esters of homovanillinic acid: pungency score and profile (Example 5); assay type: in vivo; details: for Pungency assessed: scale of 1 (very weak)-9 (very strong)
tasters [3] = assay: as above; assay type: in vivo; details: 25 ppm in 5% sugar solution; for Pungency assessed: scale of 1 (very weak)-9 (very strong), 4 tasters
Experimental: The substance to be tasted was dissolved in ethanol and the ethanolic solution was then diluted with 5% sugar solution (final concentration: 25 ppm). For the tasting, the oral cavity was rinsed and spat out by 4 tasters with approx. 5 ml of the sugar solution.

[4] = Warming effect compared to vanillyl butyl ether (Example 11); assay type: in vivo; details: 4-10 ppm in 5% sugar solution vs 10 ppm vanillyl butyl ether
Text: Test solutions with 4-10 ppm ester of homovanillic acid were sensorially evaluated in a 5% sugar solution and were compared to a test solution of 10 ppm vanillyl butyl ether.

testers [5] = assay: Increase in the alcohol pungency of an ethanolic solution (Example 10); assay type: in vivo
Experimental: On the basis of a 5% sugar solution with 20% ethanol (example 1), different concentrations (10-100 ppm) of ethyl-2-(4-hydroxy-3-methoxyphenyl) acetate (17), polymethoxylated flavone PMF 60 (Miritz) and combinations (10-50 ppm) of ethyl-2-(4-hydroxy-3-methoxyphenyl) acetate (17) with polymethoxylated flavone PMF 60 (Miritz) (20 ppm) were compared with a second base solution (5% sugar solution with 40% ethanol) (Tab. 4). To this end, 5 testers rinsed their mouth with about 5 ml of the relevant solution to be tasted, spat out the solution and assessed the taste sensation.

[6] = Tasting and sensorial assessment of isolated ethyl homovanillate (17) (Example 2); assay type: in vivo
Experimental: The primary reaction mixture is pre-fractionated using medium-pressure liquid chromatography (MPLC) (column material: Lewatit VP OC 1064; water/ethanol 3/1; v/v). Subsequently, further separation is carried out via preparative high-pressure liquid chromatography (pHPLC) (column: Phenomenex Luna C18 5μ 150×21.2 mm, flow rate 30 ml/min, detection 210 nm) in the isocratic mode (63% H2O, 37% MeOH). Final isolation of ethyl homovanillate (17) is carried out via semi-preparative high-pressure liquid chromatography (sPHPLC) in the gradient mode (column: YMC Triart C18 5μ 250×10 mm; A: H2O; B: MeOH; 0 min 65% A, 35% B; 25 min 40% A, 60% B; 30 min 100% B; flow rate 3 ml/min; detection: 250 nm). The obtained ethyl homovanillate (17) was subsequently freeze-dried and tasted and sensorially assessed at a dosage of 100 ppm in 5% sugar solution, 0.5% salt solution, 500 ppm caffeine solution and water.

testers [7] = assay: Sensorial assessment of combinations with grains of paradise extract, nonivamide and capsicum extract (Example 9); assay type: in vivo; details: for Effect in combination of nonivamide, capsicum extract and ester: versus combinations without esters (examples 26* and 28*)
rat eyes = details: Szolcsanyi, Jancso-Gabor 1975; cited from earlier work
trained panelists = assay: Time vs. intensity pungency profile compared with nonivamide (Example 8); assay type: in vivo; details: 25 ppm vs 0.5 ppm nonivamide in 5% sugar solution
Experimental: To obtain a time vs. intensity profile, trained panelists (n=8-10) rinsed their oral cavity with a gulp of a sample solution (5 ml of a 5% sugar solution). Then, the intensity of the characteristic pungency was assessed at defined time intervals on the basis of a scale without fixed graduation.

tasters [8] = assay: Isointensity of esters compared to nonivamide and a capsicum extract (Example 6); assay type: in vivo; details: 10 ppm of the ester in 5% sugar solution
Experimental: The substance to be tasted was dissolved in ethanol and the ethanolic solution was then diluted with 5% sugar solution (final concentration: 10 ppm). As reference, capsicum extract with 1,000,000 SHU (0.3-10 ppm) and nonivamide (0.1-1 ppm) were prepared in 5% sugar solution in increasing concentration. For the tasting, the oral cavity was rinsed and spat out by 4 tasters with approx. 5 ml of the solution to be tasted and assessed against the reference series.

[9] = 50 and 100 ppm (examples 17 and 18)

COc1cc(CNC(=O)CCCC/C=C/C(C)C)ccc1O [capsaicin, N-(4-hydroxy-3-methoxybenzyl)-8-methyl-(6E)-nonenoic acid amide]
Evaluation of the genotoxic potential [1]: negative result

COc1cc(CC(=O)OC/C=C/c2ccccc2)ccc1O [compound 2, [(E)-Cinnamyl]-2-(4-hydroxy-3-methoxyphenyl) acetate]
Profile (tasters [2]): delayed effect, very pungent, slightly warming, somewhat mouthwatering
Pungency assessed (tasters [2]): 5-6

COc1cc(CC(=O)OC(C)C)ccc1O [compound 7, Isopropyl-2-(4-hydroxy-3-methoxyphenyl) acetate]
Profile (tasters [3]): Late onset, tingling, warming, pungent, somewhat delayed, not long-lasting, pleasant
Pungency assessed (tasters [3]): 3

CCC(C)OC(=O)Cc1ccc(O)c(OC)c1 (stereo not drawn) [compound 8, sec-Butyl-2-(4-hydroxy-3-methoxyphenyl) acetate]
Profile (tasters [3]): very delayed onset, tingling, mainly warming, gradually increasing pungency
Pungency assessed (tasters [3]): 3

COc1cc(CC(=O)OCC(C)C)ccc1O [compound 9, Isobutyl-2-(4-hydroxy-3-methoxyphenyl) acetate]
Warming effect compared to vanillyl butyl ether [4]: warming effect similar to vanillyl butyl ether, but which lasted for a longer period
Profile (tasters [3]): quick onset of pungency, warming, slightly biting pungency
Pungency assessed (tasters [3]): 4-5

CCCCCCCOC(=O)Cc1ccc(O)c(OC)c1 [compound 14, Heptyl-2-(4-hydroxy-3-methoxyphenyl) acetate]
Profile (tasters [2]): slightly delayed effect, burning, pungent, warming
Pungency assessed (tasters [2]): 3

CCOC(=O)Cc1ccc(O)c(OC)c1 [compound 17, Ethyl-2-(4-hydroxy-3-methoxyphenyl) acetate]
Effect of combination with polymethoxylated flavone PMF 60 (testers [5]; 10-50 ppm with 20 ppm PMF 60 in 5% sugar solution with 20% ethanol (examples 7-9)): an increase of the burning sensation was additionally generated, and an extension of these effects was also achieved
Effect on taste sensation of base solution (testers [5]; 10 ppm in 5% sugar solution with 20% ethanol (example 2)): an increase and an extension of the burning sensation in the mouth
Effect on taste sensation of base solution (testers [5]; 20 ppm and 50 ppm in 5% sugar solution with 20% ethanol): additional pungency effect
Nasal effect of combination with PMF 60 (testers [5]; compared to 5% sugar solution with 40% ethanol): did not show any nasal effect
Sensorially preferred concentration in combination with PMF 60 (testers [5]; with 20 ppm PMF 60 in 5% sugar solution with 20% ethanol): 20-50 ppm
Taste description ([6]; 100 ppm in 0.5% salt solution): Pungent
Taste description ([6]; 100 ppm in 5% sugar solution): Pungent, warming
Taste description ([6]; 100 ppm in water): Pungent, stinging, slightly warming
Warming effect compared to vanillyl butyl ether [4]: milder warming effect
Additional effect in combination with capsicum extract at all concentrations (testers [7]; 2 and 5 ppm capsicum extract with 1,000,000 SHU): pleasantly warming effect, which remained even after the pungency sensation receded
Effect on pungency in combination with grains of paradise extract (testers [7]; 10 and 25 ppm with 30 ppm grains of paradise extract, 5% sugar solution (examples 2 and 3)): faster onset of the pungency
Assessment of the pungency sensation in combination with 2 ppm capsicum extract (testers [7]; [9]): pleasant and not long-lasting
Effect on pungency in combination with 2 ppm capsicum extract with 1,000,000 SHU (testers [7]; [9]): same intensifying and faster onsetting effect
Effect on pungency in combination with 5 ppm capsicum extract with 1,000,000 SHU (testers [7]; 50 and 100 ppm (examples 22 and 23)): quick decline in the pungency
Onset of pungency in combination with nonivamide (testers [7]; 50 and 100 ppm with 0.2 or 0.5 ppm nonivamide): faster onset of the pungency
Intensification of pungency in combination with nonivamide (testers [7]; 50 and 100 ppm with 0.2 or 0.5 ppm nonivamide (examples 7, 8, 12, 13)): the pungency of nonivamide was intensified at both of the tested concentrations, wherein this intensification corresponded to more than just the additive effect
Intensification of the pungency, 2 ppm versus 5 ppm capsicum extract (testers [7]; combination with capsicum extract with 1,000,000 SHU): significantly higher with 2 ppm capsicum extract with 1,000,000 SHU than with 5 ppm
Effect in combination of nonivamide, capsicum extract and ester (testers [7]): quicker decline in the pungency sensation as well as a warming effect
Profile (tasters [3]): slightly warming, somewhat pungent
Pungency assessed (tasters [3]): 1-2

CCCOC(=O)Cc1ccc(O)c(OC)c1 [compound 18, Propyl-2-(4-hydroxy-3-methoxyphenyl) acetate]
Pain sensation in rat eyes (rat eyes): active
Warming effect compared to vanillyl butyl ether [4]: long-lasting warming effect, but which occurred at a comparatively later time
Profile (tasters [3]): weak and delayed pungency, gradually warming, tingling
Pungency assessed (tasters [3]): 4-5

CCCCOC(=O)Cc1ccc(O)c(OC)c1 [compound 19, Butyl-2-(4-hydroxy-3-methoxyphenyl) acetate]
Decrease in pungency compared with nonivamide (trained panelists): considerably faster decrease in pungency
Onset of the pungency compared with nonivamide (trained panelists; identical total intensity): faster onset of the pungency
Warming effect compared to vanillyl butyl ether [4]: more marked warming effect
Intensification in combination with capsicum extract versus additive effect (testers [7]; 10 and 25 ppm with 2 or 5 ppm capsicum extract): the intensifications were more significant than just an additive effect
Effects in combination with capsicum extract (testers [7]; 10 and 25 ppm with 2 or 5 ppm capsicum extract (examples 19, 20, 24, 25)): the same effects were detected even at lower concentrations
Effect in combination of nonivamide, capsicum extract and ester (testers [7]): quicker decline in the pungency sensation as well as a warming effect
Profile (tasters [3]): immediate pungency, quick decrease
Pungency assessed (tasters [3]): 7
Concentration of capsicum extract with 1,000,000 SHU of comparable pungency (tasters [8]): ~4.5 ppm
Nonivamide concentration of comparable pungency (tasters [8]): ~0.3 ppm

CCCCCCOC(=O)Cc1ccc(O)c(OC)c1 [compound 21, Hexyl-2-(4-hydroxy-3-methoxyphenyl) acetate]
Profile (tasters [3]): clearly pungent, slightly delayed effect, warming, relatively fast decrease in pungency
Pungency assessed (tasters [3]): 9
Concentration of capsicum extract with 1,000,000 SHU of comparable pungency (tasters [8]): ~8.5 ppm
Nonivamide concentration of comparable pungency (tasters [8]): ~0.5 ppm

COc1cc(CC(=O)OCCCc2ccccc2)ccc1O [compound 22, 3-Phenylpropyl-2-(4-hydroxy-3-methoxyphenyl) acetate]
Profile (tasters [2]; 2 ppm in 5% sugar solution): delayed effect, pungent, warming, slightly tingling
Pungency assessed (tasters [2]; 2 ppm in 5% sugar solution): 5

COc1cc(CC(=O)OCCCCc2ccccc2)ccc1O [compound 23, 4-Phenylbutyl-2-(4-hydroxy-3-methoxyphenyl) acetate]
Profile (tasters [2]; 2.5 ppm in 5% sugar solution): delayed effect, pungent, delayed warming, burning, slightly tingling
Pungency assessed (tasters [2]; 2.5 ppm in 5% sugar solution): 4-5

CCCCCCCCCCOC(=O)Cc1ccc(O)c(OC)c1 [decyl-2-(4-hydroxy-3-methoxyphenyl) acetate, reference compound]
Profile (tasters [3]): weakly pungent, delayed, pear-like and greasy-pulpy secondary effect, throat burns more than the tongue
Pungency assessed (tasters [3]): 2

COC(=O)Cc1ccc(O)c(OC)c1 [methyl ester of homovanillic acid]
Pain sensation in rat eyes (rat eyes): active

CCCCCCCCOC(=O)Cc1ccc(O)c(OC)c1 [octyl-2-(4-hydroxy-3-methoxy-phenyl) acetate, reference compound]
Pain sensation in rat eyes (rat eyes): active
Profile (tasters [3]): slow onset of pungency, late, delayed, greasy-pulpy secondary effect, burning
Pungency assessed (tasters [3]): 7
